Consider two compounds from BindingDB's records for doi:10.1002/cbic.200800538 (University of Toronto, 2009).

This assay concerns the target T1, Alpha-mannosidase 2 (Drosophila melanogaster, UniProt Q24451).
T1 sequence (Q24451 whole entry): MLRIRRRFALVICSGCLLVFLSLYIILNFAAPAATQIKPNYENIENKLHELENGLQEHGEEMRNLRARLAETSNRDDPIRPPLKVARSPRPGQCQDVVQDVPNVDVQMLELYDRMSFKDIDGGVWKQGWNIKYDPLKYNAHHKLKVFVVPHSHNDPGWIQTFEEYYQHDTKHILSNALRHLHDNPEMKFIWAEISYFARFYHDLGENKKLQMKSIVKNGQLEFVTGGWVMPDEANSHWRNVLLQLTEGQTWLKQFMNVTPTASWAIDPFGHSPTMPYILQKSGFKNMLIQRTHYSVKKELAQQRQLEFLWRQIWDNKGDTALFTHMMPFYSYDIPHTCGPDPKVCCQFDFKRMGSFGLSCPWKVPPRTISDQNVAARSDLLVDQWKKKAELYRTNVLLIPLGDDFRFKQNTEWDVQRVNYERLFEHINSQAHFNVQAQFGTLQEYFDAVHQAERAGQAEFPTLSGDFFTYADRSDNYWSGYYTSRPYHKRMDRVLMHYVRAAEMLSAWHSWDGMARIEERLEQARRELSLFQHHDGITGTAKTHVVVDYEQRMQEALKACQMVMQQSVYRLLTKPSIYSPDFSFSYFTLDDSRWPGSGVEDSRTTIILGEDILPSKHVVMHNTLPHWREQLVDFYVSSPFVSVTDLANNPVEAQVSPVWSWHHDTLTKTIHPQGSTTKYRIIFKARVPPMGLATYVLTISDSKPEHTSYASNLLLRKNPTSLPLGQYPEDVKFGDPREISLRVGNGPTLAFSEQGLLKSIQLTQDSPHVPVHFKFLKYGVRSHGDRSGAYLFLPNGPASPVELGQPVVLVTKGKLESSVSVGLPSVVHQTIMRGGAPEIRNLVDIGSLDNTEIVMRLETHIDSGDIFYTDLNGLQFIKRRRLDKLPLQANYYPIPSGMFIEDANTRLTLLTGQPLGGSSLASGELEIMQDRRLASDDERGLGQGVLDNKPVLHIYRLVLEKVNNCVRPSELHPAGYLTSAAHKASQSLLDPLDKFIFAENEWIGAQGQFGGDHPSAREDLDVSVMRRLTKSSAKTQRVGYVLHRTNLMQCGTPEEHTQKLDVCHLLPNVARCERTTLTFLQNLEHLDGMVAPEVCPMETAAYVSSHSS
As to the kind of experiment: Inhibition Assay. As for the experimental part: The rate of hydrolysis catalyzed by drosophila golgi alpha-mannosidase II (dGMII)and in the presence of different concentration of inhibitor was measured fluorometrically and Ki values were determined from Dixon plots.

pIC50, pKi: −log10 of the molar value.

One may read the pKi as −log10 of the Ki, conventionally taken in molar units. A low value points to a high Ki. Compound `C[S+]([O-])[C@@H]1[C@@H](N)[C@@H](O)[C@@H](O)[C@H]1O` (some centres not stated) [Mannostatin B, 2] gave a pKi of 6.82. A word on the pIC50: it is the negative decadic logarithm of the IC50, by convention in mol/L. In turn, `N[C@H]1[C@@H](O)[C@@H](O)[C@@H](O)[C@H]1O` [Mannostatin analogue, 4b] had a pIC50 of 4.00.
